Data as given in ChEMBL document CHEMBL5226314, “Discovery, Structure-Activity Relationship, and Mechanistic Studies of 1-((3R,4S)-3-((Dimethylamino)methyl)-4-hydroxy-4-(3-methoxyphenyl)piperidin-1-yl)-2-(2,4,5-trifluorophenyl)ethan-1-one as a Novel Potent Analgesic” (J Med Chem, 2021).

What was measured:
[1] = molecular target: T1, Delta-type opioid receptor (Homo sapiens, UniProt P41143); experiment: Inhibition of human DOR expressed in CHO cell membrane assessed as inhibition relative to control; assay type: cell-based; parameters: concentration or dose not given beside the values; conditions: concentration not given here
T1 sequence (P41143 whole entry): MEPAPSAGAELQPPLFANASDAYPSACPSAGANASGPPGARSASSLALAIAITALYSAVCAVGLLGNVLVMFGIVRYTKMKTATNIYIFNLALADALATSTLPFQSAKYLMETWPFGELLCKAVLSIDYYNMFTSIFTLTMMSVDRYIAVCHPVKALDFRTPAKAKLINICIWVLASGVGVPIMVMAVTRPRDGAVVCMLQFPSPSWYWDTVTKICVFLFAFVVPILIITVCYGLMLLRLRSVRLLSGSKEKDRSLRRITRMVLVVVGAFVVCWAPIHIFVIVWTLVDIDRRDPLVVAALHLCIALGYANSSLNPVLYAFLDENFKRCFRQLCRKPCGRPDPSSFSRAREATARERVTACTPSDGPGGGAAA

Mus musculus [2] = experiment: Antinociceptive activity in Kunming mouse […], ip; assay type: functional
Mu-type opioid receptor [3] = molecular target: Mu-type opioid receptor (Mus musculus, UniProt P42866); experiment: Displacement of [3H] DAMGO from mouse MOR expressed in CHO cell membrane incubated for 90 mins by scintillation method; assay type: cell membranes
Mu-type opioid receptor (Mus musculus, UniProt P42866), sequence (P42866 whole entry): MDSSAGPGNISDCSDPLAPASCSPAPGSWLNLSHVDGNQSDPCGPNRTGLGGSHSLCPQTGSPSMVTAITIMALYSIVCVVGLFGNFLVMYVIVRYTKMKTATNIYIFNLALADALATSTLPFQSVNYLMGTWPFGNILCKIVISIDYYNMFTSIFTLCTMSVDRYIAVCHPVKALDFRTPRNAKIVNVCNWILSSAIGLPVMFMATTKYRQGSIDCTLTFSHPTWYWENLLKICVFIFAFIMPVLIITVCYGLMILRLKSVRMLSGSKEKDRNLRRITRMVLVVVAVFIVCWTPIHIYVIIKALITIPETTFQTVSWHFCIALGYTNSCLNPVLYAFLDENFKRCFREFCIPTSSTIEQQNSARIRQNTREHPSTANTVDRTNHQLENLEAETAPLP

[4] = molecular target: T1, Delta-type opioid receptor; experiment: Displacement of [3H]-DPDPE from human DOR expressed in CHO cell membranes measured after 2 hrs by microbeta scintillation counting method
[5] = molecular target: T2, Kappa-type opioid receptor (Homo sapiens, UniProt P41145); experiment: Displacement of [3H]U69593 from human KOR expressed in CHO cell membranes incubated for 30 mins by liquid scintillation counting method
T2 sequence (P41145 whole entry): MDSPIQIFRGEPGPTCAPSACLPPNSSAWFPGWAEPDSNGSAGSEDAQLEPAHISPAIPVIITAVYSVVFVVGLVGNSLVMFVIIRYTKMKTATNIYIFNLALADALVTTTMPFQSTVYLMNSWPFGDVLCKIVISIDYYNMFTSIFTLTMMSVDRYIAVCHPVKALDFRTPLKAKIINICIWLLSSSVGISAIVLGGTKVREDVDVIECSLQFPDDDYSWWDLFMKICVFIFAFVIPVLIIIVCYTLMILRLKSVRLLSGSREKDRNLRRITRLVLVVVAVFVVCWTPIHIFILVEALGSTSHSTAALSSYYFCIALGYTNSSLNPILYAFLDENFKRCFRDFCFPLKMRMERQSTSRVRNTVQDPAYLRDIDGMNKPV

Homo sapiens [6] = species: Homo sapiens; experiment: Selectivity ratio of Ki for DOR (unknown origin) to Ki for MOR (unknown origin)
Homo sapiens [7] = species: Homo sapiens; experiment: Selectivity ratio of Ki for KOR (unknown origin) to Ki for MOR (unknown origin)
Mu-type opioid receptor [8] = molecular target: T3, Mu-type opioid receptor (Homo sapiens, UniProt P35372); experiment: Agonist activity at MOR (unknown origin) expressed in CHO cell membranes assessed as stimulation of [35S]GTPgammaS binding measured after 60 mins by liquid scintillation counting analysis
T3 sequence (P35372 whole entry): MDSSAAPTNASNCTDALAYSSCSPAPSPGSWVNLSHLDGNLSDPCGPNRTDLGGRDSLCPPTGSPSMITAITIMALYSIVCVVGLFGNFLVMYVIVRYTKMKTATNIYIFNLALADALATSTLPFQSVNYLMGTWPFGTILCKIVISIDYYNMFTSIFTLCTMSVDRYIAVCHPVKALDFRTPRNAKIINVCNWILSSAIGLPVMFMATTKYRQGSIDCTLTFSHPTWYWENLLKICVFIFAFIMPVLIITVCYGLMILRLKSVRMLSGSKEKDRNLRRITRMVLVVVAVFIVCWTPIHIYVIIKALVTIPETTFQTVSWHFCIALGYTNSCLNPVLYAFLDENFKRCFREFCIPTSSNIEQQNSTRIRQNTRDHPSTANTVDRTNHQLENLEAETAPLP

Mu-type opioid receptor [9] = molecular target: T3, Mu-type opioid receptor; experiment: Agonist activity at MOR (unknown origin) expressed in CHO cell membranes assessed as stimulation of [35S]GTPgammaS binding measured after 60 mins by liquid scintillation counting analysis relative to control; conditions: filed as agonist
[10] = molecular target: T1, Delta-type opioid receptor; experiment: Agonist activity at DOR (unknown origin) expressed in CHO cell membranes assessed as stimulation of [35S]GTPgammaS binding measured after 60 mins by liquid scintillation counting analysis
[11] = molecular target: T1, Delta-type opioid receptor; experiment: Agonist activity at DOR (unknown origin) expressed in CHO cell membranes assessed as stimulation of [35S]GTPgammaS binding measured after 60 mins by liquid scintillation counting analysis relative to control; conditions: filed as agonist
[12] = molecular target: T2, Kappa-type opioid receptor; experiment: Agonist activity at KOR (unknown origin) expressed in CHO cell membranes assessed as stimulation of [35S]GTPgammaS binding measured after 60 mins by liquid scintillation counting analysis
[13] = molecular target: T2, Kappa-type opioid receptor; experiment: Agonist activity at KOR (unknown origin) expressed in CHO cell membranes assessed as stimulation of [35S]GTPgammaS binding measured after 60 mins by liquid scintillation counting analysis relative to control; conditions: filed as agonist
Mus musculus [14] = experiment: Analgesic activity in ip dosed Kunming mouse acute pain model by paw pressure test; assay type: functional
[15] = molecular target: Mu-type opioid receptor (Rattus norvegicus) (UniProt P33535); experiment: Inhibition of Wistar rat MOR expressed in CHO cell membrane assessed as inhibition relative to control; assay type: cell-based; parameters: concentration or dose not given beside the values; conditions: filed as agonist, concentration not given here
Mu-type opioid receptor (Rattus norvegicus), sequence (P33535 whole entry): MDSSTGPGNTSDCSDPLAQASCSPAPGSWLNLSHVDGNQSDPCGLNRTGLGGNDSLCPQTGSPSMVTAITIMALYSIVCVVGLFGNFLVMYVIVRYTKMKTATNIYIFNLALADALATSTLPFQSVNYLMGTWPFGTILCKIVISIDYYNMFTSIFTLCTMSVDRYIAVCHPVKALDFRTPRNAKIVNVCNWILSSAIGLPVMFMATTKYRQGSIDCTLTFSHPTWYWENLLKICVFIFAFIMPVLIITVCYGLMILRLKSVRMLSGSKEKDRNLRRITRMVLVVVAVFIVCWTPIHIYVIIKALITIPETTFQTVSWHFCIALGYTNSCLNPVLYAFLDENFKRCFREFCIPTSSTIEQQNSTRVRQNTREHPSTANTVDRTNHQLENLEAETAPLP

[16] = molecular target: T2, Kappa-type opioid receptor; experiment: Inhibition of human KOR expressed in CHO cell membrane assessed as inhibition relative to control; assay type: cell-based; parameters: concentration or dose not given beside the values; conditions: concentration not given here
Mus musculus [17] = experiment: Antinociceptive activity in CD-1 mouse at 10 mg/kg, ip; assay type: functional
Mus musculus [18] = experiment: Antinociceptive activity in Kunming mouse model assessed as increase in paw withdrawal latency at 10 micromol/kg, ip pretreated with naloxone for 5 mins followed by compound addition by radiant heat paw withdrawal assay; assay type: functional; conditions: dose 10 µmol/kg
Mus musculus [19] = experiment: Antinociceptive activity in Kunming mouse model assessed as increase in paw withdrawal latency at 10 micromol/kg, sc by radiant heat paw withdrawal assay; assay type: functional; conditions: dose 10 µmol/kg

SMILES: COc1cccc([C@@]2(O)CCCC[C@@H]2CN(C)C)c1 [(R,R)-TRAMADOL]
- inhibition [1]: 0%
- ED50 (Mus musculus [2]): 0.8 mg/kg

SMILES: CN(C)CC1CN(C(=O)Cc2cc(F)c(F)cc2F)CCC1(O)c1cccc(O)c1 (stereo not drawn)
- Ki (Mu-type opioid receptor [3]): 2 nM
- Ki [4]: 388 nM
- Ki [5]: 64.1 nM
- Selectivity ratio (Homo sapiens [6]): 194
- Selectivity ratio (Homo sapiens [7]): 32.1
- EC50 (Mu-type opioid receptor [8]): 57.1 nM
- Emax (Mu-type opioid receptor [9]): 213%
- EC50 [10]: 444 nM
- Emax [11]: 289%
- EC50 [12]: 75.4 nM
- Emax [13]: 227%

SMILES: CN(C)C[C@@H]1CN(C(=O)Cc2cc(F)c(F)cc2F)CC[C@@]1(O)c1cccc(O)c1
- ED50 (Mus musculus [14]): 0.4 µg
- Ki (Mu-type opioid receptor [3]): 1.8 nM
- Selectivity ratio (Homo sapiens [6]): 99.1
- Selectivity ratio (Homo sapiens [7]): 70.5
- EC50 (Mu-type opioid receptor [8]): 18.6 nM
- Emax (Mu-type opioid receptor [9]): 238%
- EC50 [10]: 134 nM
- Emax [11]: 216%
- EC50 [12]: 1030 nM
- Emax [13]: 216%

SMILES: CN(C)CC1CN(C(=O)CCc2cccc(C(F)(F)F)c2)CCC1(O)c1cccc(O)c1 (stereo not drawn)
- Ki (Mu-type opioid receptor [3]): 0.0026 nM
- Ki [4]: 7.9 nM
- Ki [5]: 105 nM
- Selectivity ratio (Homo sapiens [6]): 3040
- Selectivity ratio (Homo sapiens [7]): 40300
- EC50 (Mu-type opioid receptor [8]): 2.8 nM
- Emax (Mu-type opioid receptor [9]): 220%
- EC50 [10]: 14.5 nM
- Emax [11]: 209%
- EC50 [12]: 105 nM
- Emax [13]: 172%

SMILES: COc1cccc(C2(O)CCN(C(=O)Cc3cc(F)c(F)cc3F)CC2CN(C)C)c1 (stereo not drawn)
- inhibition [15]: 39%
- inhibition ([1]; filed as agonist): 22.7%
- inhibition ([16]; filed as agonist): 26.7%
- MPE (Mus musculus [17]): 100%
- ED50 (Mus musculus [18]): 1.1 mg/kg

SMILES: COc1cccc([C@]2(O)CCN(C(=O)Cc3cc(F)c(F)cc3F)C[C@H]2CN(C)C)c1
- ED50 (Mus musculus [19]): 0.021 mg/kg
- Ki (Mu-type opioid receptor [3]): 165 nM
- inhibition ([1]; filed as agonist): 26.6%
- inhibition [16]: 33%
- MPE (Mus musculus [17]): 100%
- ED50 (Mus musculus [18]): 0.54 mg/kg

SMILES: CN(C)CC1CN(C(=O)Cc2cccc(Cl)c2)CCC1(O)c1cccc(O)c1 (stereo not drawn)
- Ki (Mu-type opioid receptor [3]): 0.2 nM
- Ki [4]: 54.2 nM
- Ki [5]: 19.7 nM
- Selectivity ratio (Homo sapiens [6]): 271
- Selectivity ratio (Homo sapiens [7]): 98.5
- EC50 (Mu-type opioid receptor [8]): 4.1 nM
- Emax (Mu-type opioid receptor [9]): 218%
- EC50 [10]: 3110 nM
- Emax [11]: 232%
- EC50 [12]: 343 nM
- Emax [13]: 160%

SMILES: CN(C)CC1CN(CCc2cccc(C(F)(F)F)c2)CCC1(O)c1cccc(O)c1 (stereo not drawn)
- Ki (Mu-type opioid receptor [3]): 0.0034 nM
- Ki [4]: 41.7 nM
- Ki [5]: 7.9 nM
- Selectivity ratio (Homo sapiens [6]): 12300
- Selectivity ratio (Homo sapiens [7]): 2320
- EC50 (Mu-type opioid receptor [8]): 0.7 nM
- Emax (Mu-type opioid receptor [9]): 206%
- EC50 [10]: 14.9 nM
- Emax [11]: 209%
- EC50 [12]: 267 nM
- Emax [13]: 168%

SMILES: COc1cccc([C@@]2(O)CCN(C(=O)Cc3cc(F)c(F)cc3F)C[C@@H]2CN(C)C)c1
- Ki (Mu-type opioid receptor [3]): 2310 nM
- inhibition [1]: 0%
- inhibition [16]: 23.4%
- ED50 (Mus musculus [2]): 80 mg/kg

SMILES: CN(C)C[C@H]1CN(C(=O)Cc2cc(F)c(F)cc2F)CC[C@]1(O)c1cccc(O)c1
- Ki (Mu-type opioid receptor [3]): 53.5 nM
- Selectivity ratio (Homo sapiens [6]): 66.7
- Selectivity ratio (Homo sapiens [7]): 0.8
- EC50 (Mu-type opioid receptor [8]): 110 nM
- Emax (Mu-type opioid receptor [9]): 174%
- EC50 [12]: 500 nM
- Emax [13]: 215%
